Assay results reported in patent publication US20240398771A1, “TREATMENT OF SCLERODERMA AND RAYNAUD'S SYNDROME” (Aisa Pharma, Inc., priority 2023, published 2024).

Test system: participants with SSc-RP
Assay: Frequency of weekly symptomatic RP attacks (patient diary), Phase 2a Part A
Format: in vivo, human
Procedure: Part A—Double-blind, Placebo-controlled, Parallel-group, Dose selection, will assess the safety and efficacy of two doses of cilnidipine (10 mg and 20 mg), alone and in combination with tadalafil. A total of 36 participants will be randomized to one of six pre-specified treatment arms. See Example 3 for data obtained in this phase of the study thus far, on 11 participants.
Please refer to FIG. 1 for treatment arms in Part A of the study. Dosing lasted or will last for 12 (±2) days in which participants self-administered or will self-administer daily doses of assigned treatment in the morning. Each participant took or will take one capsule and one tablet to blind the active therapy being received.
The relevant metrics measured by this tool daily are: • Study medication • SSc-RP symptoms (Reporting an attack including duration of attack) • Severity of the attack considering all symptoms of the attack e.g. tingling, numbness, pain, color changes (VAS 0-10 cm scale) • Participant's location at the time of the attack (inside home/outside home) • Selecting symptoms experienced during the attack (tingling, numbness, pain, color changes, other) • Pain rating during the attack (11-point Likert scale) • The RCS based on how much difficulty participants had with Raynaud's today, how many attacks the participant had, and how long they lasted. Participants will also be asked to consider how much pain, numbness, or other symptoms the Raynaud's caused in fingers (including painful sores), and how much the Raynaud's alone affected the use of hands today (VAS 0-10 cm scale).
Percent change from baseline evaluation for frequency of weekly RP attacks were or will be used as the primary efficacy variable. The sponsor-developed participant-informed diary will be used to record data. Frequency of weekly RP attacks is defined as the total number of RP attacks divided by the number of days with available diary data within the last 7 days of each dosing period then multiplied by 7. Total number of RP attacks during the last 7 days of screening period divided by the number of days with available data then multiplied by 7 will be used as baseline for the analysis of all periods.
Percentage change={(weekly RP attacks for the last 7 days of each dosing period−Baseline weekly RP attacks)/Baseline weekly RP attacks}*100%.
Absolute change=weekly RP attacks for the last 7 days of each dosing period−Baseline weekly RP attacks
Percent change from baseline evaluation for frequency of weekly RP attacks was and will be the primary efficacy endpoint. Frequency of weekly RP attacks is defined as the total number of RP attacks divided by the number of days with available diary data within the last 7 days of each dosing period then multiplied by 7. Total number of RP attacks during the last 7 days of screening period divided by the number of days with available data then multiplied by 7 will be used as baseline for the analysis of all periods.
The following data was actually obtained in accordance with the protocol and plan delineated in Examples 1 and 2. The accompanying data involved 11 patients out of the planned 76 patient study. The study was done in patients with scleroderma (systemic sclerosis) who had relatively frequent Raynaud symptoms as they needed to average at least one attack per day during a screening period of up to two weeks. In this first phase of this double-blind placebo-controlled, prospective randomized study, patients were treated in parallel and after meeting study criteria were randomized to receive either placebo, cilnidipine 10 mg daily, cilnidipine 20 mg daily, tadalafil 5 mg daily, cilnidipine 10 mg plus 5 mg of tadalafil, or cilnidipine 20 mg plus 5 mg of tadalafil.

[1] = Table A-1, ITT Part A, last 7 days of dosing period, listed as Cilnidipine 10 mg
[2] = Table A-1, ITT Part A, last 7 days of dosing period, listed as Cilnidipine 20 mg
[3] = Table A-1, ITT Part A, last 7 days of dosing period, listed as Pooled Cilnidipine
[4] = Table A-1, ITT Part A, last 7 days of dosing vs last 7 days of screening
[5] = Table A-1, ITT Part A, last 7 days of dosing vs last 7 days of screening, listed as Cilnidipine 10 mg
[6] = Table A-1, ITT Part A, last 7 days of dosing vs last 7 days of screening, listed as Cilnidipine 20 mg
[7] = Table A-1, ITT Part A, last 7 days of dosing vs last 7 days of screening, listed as Pooled Cilnidipine
[8] = Table A-2, excluding outliers, ITT Part A, last 7 days of dosing period, listed as Cilnidipine 10 mg
[9] = Table A-2, excluding outliers, ITT Part A, last 7 days of dosing period, listed as Cilnidipine 20 mg
[10] = Table A-2, excluding outliers, ITT Part A, last 7 days of dosing period, listed as Pooled Cilnidipine
[11] = Table A-3 by baseline RCS, first sub-table (RCS <5.0), ITT Part A, listed as Cilnidipine 10 mg
[12] = Table A-3 by baseline RCS, first sub-table (RCS <5.0), ITT Part A, listed as Cilnidipine 20 mg
[13] = Table A-3 by baseline RCS, first sub-table (RCS <5.0), ITT Part A, listed as Pooled Cilnidipine
[14] = Table A-1, ITT Part A, last 7 days of dosing period
[15] = Table A-2, excluding outliers, ITT Part A
[16] = Table A-2, excluding outliers, ITT Part A, last 7 days of dosing period
[17] = Table A-3 by baseline RCS, second sub-table (heading not given; RCS >5.0), ITT Part A

COCCOC(=O)C1=C(C)NC(C)=C(C(=O)OC/C=C/c2ccccc2)C1c1cccc([N+](=O)[O-])c1 (centres unmarked) [Cilnidipine, 1,4-dihydro-2,6-dimethyl,4-(3-nitrophenyl)-3,5-pyridinedicarboxylic acid 2-methoxyethyl (2 E)-3-phenyl-2-propenyl ester]
weekly frequency of Raynaud attacks, direction of change (Example 3, first 11 patients of Part A, vs baseline): decrease | Weekly Symptomatic RP Attacks, Max [1]: 14.0, 14.0 | Weekly Symptomatic RP Attacks, Mean (SD) [1]: 14.00 | Weekly Symptomatic RP Attacks, Min [1]: 14.0, 14.0 | Weekly Symptomatic RP Attacks, Q1 [1]: 14.00, 14.00 | Weekly Symptomatic RP Attacks, Q3 [1]: 14.00, 14.00 | Weekly Symptomatic RP Attacks, Max [2]: 11.0 | Weekly Symptomatic RP Attacks, Mean (SD) [2]: 8.00 (4.243) | Weekly Symptomatic RP Attacks, Min [2]: 5.0 | Weekly Symptomatic RP Attacks, Q1 [2]: 5.00 | Weekly Symptomatic RP Attacks, Q3 [2]: 11.00 | Weekly Symptomatic RP Attacks, Max [3]: 14.0 | Weekly Symptomatic RP Attacks, Mean (SD) [3]: 10.00 (4.583) | Weekly Symptomatic RP Attacks, Min [3]: 5.0 | Weekly Symptomatic RP Attacks, Q1 [3]: 5.00 | Weekly Symptomatic RP Attacks, Q3 [3]: 14.00 | Weekly Symptomatic RP Attacks Percent Change from Baseline, Min [4]: −33.3, −33.3% | Weekly Symptomatic RP Attacks Change from Baseline, Max [5]: −7.0, −7.0 | Weekly Symptomatic RP Attacks Change from Baseline, Mean (SD) [5]: −7.00 | Weekly Symptomatic RP Attacks Change from Baseline, Min [5]: −7.0, −7.0 | Weekly Symptomatic RP Attacks Change from Baseline, Q1 [5]: −7.00, −7.00 | Weekly Symptomatic RP Attacks Change from Baseline, Q3 [5]: −7.00, −7.00 | Weekly Symptomatic RP Attacks Percent Change from Baseline, Max [5]: −33.3, −33.3% | Weekly Symptomatic RP Attacks Change from Baseline, Max [6]: −2.0 | Weekly Symptomatic RP Attacks Change from Baseline, Mean (SD) [6]: −4.50 (3.536) | Weekly Symptomatic RP Attacks Change from Baseline, Min [6]: −7.0 | Weekly Symptomatic RP Attacks Change from Baseline, Q1 [6]: −7.00 | Weekly Symptomatic RP Attacks Change from Baseline, Q3 [6]: −2.00 | Weekly Symptomatic RP Attacks Percent Change from Baseline, Max [6]: −28.6% | Weekly Symptomatic RP Attacks Percent Change from Baseline, Min [6]: −38.9% | Weekly Symptomatic RP Attacks Change from Baseline, Max [7]: −2.0 | Weekly Symptomatic RP Attacks Change from Baseline, Min [7]: −7.0 | Weekly Symptomatic RP Attacks Change from Baseline, Q1 [7]: −7.00 | Weekly Symptomatic RP Attacks Change from Baseline, Q3 [7]: −2.00 | Weekly Symptomatic RP Attacks Percent Change from Baseline, Max [7]: −28.6% | Weekly Symptomatic RP Attacks Percent Change from Baseline, Min [7]: −38.9% | Weekly Symptomatic RP Attacks Percent Change from Baseline, Q3 [7]: −28.57% | Weekly Symptomatic RP Attacks, Max [8]: 14.0, 14.0 | Weekly Symptomatic RP Attacks, Mean (SD) [8]: 14.00 | Weekly Symptomatic RP Attacks, Min [8]: 14.0, 14.0 | Weekly Symptomatic RP Attacks, Q1 [8]: 14.00, 14.00 | Weekly Symptomatic RP Attacks, Q3 [8]: 14.00, 14.00 | Weekly Symptomatic RP Attacks, Max [9]: 11.0 | Weekly Symptomatic RP Attacks, Mean (SD) [9]: 8.00 (4.243) | Weekly Symptomatic RP Attacks, Min [9]: 5.0 | Weekly Symptomatic RP Attacks, Q1 [9]: 5.00 | Weekly Symptomatic RP Attacks, Q3 [9]: 11.00 | Weekly Symptomatic RP Attacks, Max [10]: 14.0 | Weekly Symptomatic RP Attacks, Mean (SD) [10]: 10.00 (4.583) | Weekly Symptomatic RP Attacks, Min [10]: 5.0 | Weekly Symptomatic RP Attacks, Q1 [10]: 5.00 | Weekly Symptomatic RP Attacks, Q3 [10]: 14.00 | Weekly Symptomatic RP Attacks Percent Change from Baseline, Min (Table A-3 by baseline RCS, first sub-table (RCS <5.0), ITT Part A): −33.3, −33.3% | Weekly Symptomatic RP Attacks Change from Baseline, Max [11]: −7.0, −7.0 | Weekly Symptomatic RP Attacks Change from Baseline, Min [11]: −7.0, −7.0 | Weekly Symptomatic RP Attacks Change from Baseline, Q1 [11]: −7.00, −7.00 | Weekly Symptomatic RP Attacks Change from Baseline, Q3 [11]: −7.00, −7.00 | Weekly Symptomatic RP Attacks Percent Change from Baseline, Max [11]: −33.3, −33.3% | Weekly Symptomatic RP Attacks Change from Baseline, Max [12]: −2.0 | Weekly Symptomatic RP Attacks Change from Baseline, Min [12]: −7.0 | Weekly Symptomatic RP Attacks Change from Baseline, Q1 [12]: −7.00 | Weekly Symptomatic RP Attacks Change from Baseline, Q3 [12]: −2.00 | Weekly Symptomatic RP Attacks Percent Change from Baseline, Max [12]: −28.6% | Weekly Symptomatic RP Attacks Percent Change from Baseline, Min [12]: −38.9% | Weekly Symptomatic RP Attacks Percent Change from Baseline, Q3 [12]: −28.57% | Weekly Symptomatic RP Attacks Change from Baseline, Max [13]: −2.0 | Weekly Symptomatic RP Attacks Change from Baseline, Min [13]: −7.0 | Weekly Symptomatic RP Attacks Change from Baseline, Q1 [13]: −7.00 | Weekly Symptomatic RP Attacks Change from Baseline, Q3 [13]: −2.00 | Weekly Symptomatic RP Attacks Percent Change from Baseline, Max [13]: −28.6% | Weekly Symptomatic RP Attacks Percent Change from Baseline, Min [13]: −38.9% | Weekly Symptomatic RP Attacks Percent Change from Baseline, Q3 [13]: −28.57%

CN1CC(=O)N2[C@H](c3ccc4c(c3)OCO4)c3[nH]c4ccccc4c3C[C@@H]2C1=O [Tadalafil]
Weekly Symptomatic RP Attacks, Min [14]: 7.0 | Weekly Symptomatic RP Attacks, Q1 [14]: 7.00 | Weekly Symptomatic RP Attacks Change from Baseline, Mean (SD) [4]: 4.50 (2.121) | Weekly Symptomatic RP Attacks Change from Baseline, Median [4]: 4.50 | Weekly Symptomatic RP Attacks Change from Baseline, Min [4]: 3.0 | Weekly Symptomatic RP Attacks Change from Baseline, Q1 [4]: 3.00 | Weekly Symptomatic RP Attacks Percent Change from Baseline, Max [4]: 75.0% | Weekly Symptomatic RP Attacks Percent Change from Baseline, Q3 [4]: 75.00% | Weekly Symptomatic RP Attacks Change from Baseline, Max [15]: 6.0, 6.0 | Weekly Symptomatic RP Attacks Change from Baseline, Q3 [15]: 6.00, 6.00 | Weekly Symptomatic RP Attacks Percent Change from Baseline, Min [15]: 50.0, 50.0% | Weekly Symptomatic RP Attacks Percent Change from Baseline, Q1 [15]: 50.00, 50.00% | Weekly Symptomatic RP Attacks, Max [16]: 18.0, 18.0 | Weekly Symptomatic RP Attacks, Q3 [16]: 18.00, 18.00 | Weekly Symptomatic RP Attacks Change from Baseline, Max [17]: 6.0 | Weekly Symptomatic RP Attacks Change from Baseline, Min [17]: 3.0 | Weekly Symptomatic RP Attacks Change from Baseline, Q1 [17]: 3.00 | Weekly Symptomatic RP Attacks Change from Baseline, Q3 [17]: 6.00 | Weekly Symptomatic RP Attacks Percent Change from Baseline, Max [17]: 75.0% | Weekly Symptomatic RP Attacks Percent Change from Baseline, Min [17]: 50.0% | Weekly Symptomatic RP Attacks Percent Change from Baseline, Q1 [17]: 50.00% | Weekly Symptomatic RP Attacks Percent Change from Baseline, Q3 [17]: 75.00% | Weekly Symptomatic RP Attacks, Max [17]: 18.0 | Weekly Symptomatic RP Attacks, Min [17]: 7.0 | Weekly Symptomatic RP Attacks, Q1 [17]: 7.00 | Weekly Symptomatic RP Attacks, Q3 [17]: 18.00
